Source: patent publication US7449495B2, “Retinoid derivatives with antiangiogenic, antitumoral and proapoptotic activities” (Sigma-Tau Industrie Farmaceutiche Riunite S.p.A., priority 2001, dated 2008)

Assays:
[1] = test system: multidrug-resistant human ovarian carcinoma A2780/Dx; assay: Antitumoral activity in human ovarian carcinoma model A2780/Dx; format: in vivo, CD1 nu/nu mice; conditions: qdx5x3w
Description: The human ovarian carcinoma cells A2780, A2780/Dx and NCIH460 were maintained in RPMI-1640 containing 10% FCS, 2 mM glutamine, 50 μg/ml gentamicin, at 37° C. in a humidified atmosphere containing 5% CO2. The cells were trypsinised, collected in complete medium, centrifuged at approx. 1100 rpm for 10 minutes and the precipitate resuspended in Hank's 199 Medium; this operation was carried out twice. The cells were resuspended in Hank's 199 Medium at a density of 20×10^6/ml and 0.1 ml (equal to 2×10^6 cells/mouse) were injected s.c. into the right flank of CD1 nu/nu 6 week-old, female mice.
The ST1926 solution was prepared immediately before use and solubilised in cremophor:ethanol 1:1 and subsequently diluted 1:4 in buffered saline solution. The animal treatments were administered in a volume of 10 ml/kg. The treatment protocol for ST1926 at different doses was for 5 consecutive days (qd×5), beginning one day following tumor cell inoculation and repeated for 3 cycles. Measurements of tumor dimensions were performed using a digital calliper (Vernier Caliper) twice weekly, from the time in which the mass was measurable. The tumor mass was evaluated from the size of the two principal dimensions (length and breadth), expressed in mm, applying the formula (length×breadth^2)/2, that is, the tumor volume in mm3. For each experimental group, the percentage of tumor volume inhibition was calculated (TVI %), with respect to the control, namely (100−(T/C %). TVI was evaluated 2 days after the final administration of ST1926.
The mice were measured until the control group tumors had reached a weight of 2 g, then the mice were sacrificed by cervical dislocation.
A comparison between the TVI values obtained for each group was performed using the non parametric Mann Whitney test for non-paired data, using the Instat software from GraphPad inc.
The mice were weighed prior to each treatment, firstly, so as to be able to administer the correct quantity of substance based on the possible changes in weight observed throughout the course of administration of the drug, and also to record the maximum weight loss throughout the treatment (BWL % max).

[2] = test system: ornithine decarboxylase in mouse epidermis; conditions: in vivo; cited from earlier work

Structure (SMILES): O=C(O)/C=C/c1ccc(-c2ccc(O)c(C34CC5CC(CC(C5)C3)C4)c2)cc1 [ST1926, E-4-(3-(1-adamantyl)-4-hydroxyphenyl)cinnamic acid]
- BWL % Max ([1]; 10 mg/kg po): 0%
- Lethality ([1]; 10 mg/kg po): 0/8
- TVI % ± SE ([1]; 10 mg/kg po): *34 ± 3%
- BWL % Max ([1]; 15 mg/kg po): 6%
- Lethality ([1]; 15 mg/kg po): 0/8
- TVI % ± SE ([1]; 15 mg/kg po): *54 ± 9%
- activity in the ODC assay compared with compound 1 (in words) [2]: lower activities
